# Read-outs that look alike come from different tables or passages of the source.
# Legend:
# Format in all cases: biochemical
# recombinant human MAO-B [1] = target: T1, recombinant human MAO-B (Homo sapiens, UniProt P27338); assay: Fluorometric kynuramine deamination assay, MAO-B inhibition (IC50); conditions: for IC50: kynuramine 50 μM, mean ± SD of triplicate, read-out: Monoamine oxidase-B IC50; for Index MAO-A/B: ratio of IC50 MAO-A / IC50 MAO-B
# T1 construct: purchased BD Biosciences (Bedford, MA, USA); host or cells: baculovirus (Autographa californica) infected insect cells (BTI-TN-5B1-4)
# T1 sequence (P27338 1-520): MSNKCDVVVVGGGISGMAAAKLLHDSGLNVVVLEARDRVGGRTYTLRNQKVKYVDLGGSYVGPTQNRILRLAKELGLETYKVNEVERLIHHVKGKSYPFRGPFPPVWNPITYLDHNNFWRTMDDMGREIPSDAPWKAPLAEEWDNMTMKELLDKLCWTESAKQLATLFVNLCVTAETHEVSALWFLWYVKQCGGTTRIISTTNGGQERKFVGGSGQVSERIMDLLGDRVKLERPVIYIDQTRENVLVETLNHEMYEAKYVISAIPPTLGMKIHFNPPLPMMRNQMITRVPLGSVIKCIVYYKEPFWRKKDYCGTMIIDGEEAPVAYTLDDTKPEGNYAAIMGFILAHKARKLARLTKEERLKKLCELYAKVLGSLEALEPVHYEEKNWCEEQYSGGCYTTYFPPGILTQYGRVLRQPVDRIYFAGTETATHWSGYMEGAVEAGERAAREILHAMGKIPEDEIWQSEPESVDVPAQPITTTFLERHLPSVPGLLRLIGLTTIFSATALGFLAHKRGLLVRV
# Protocol: (§1) Pure recombinant human monoamine oxidases (MAO-A and MAO-B) enzymes overexpressed in baculovirus (Autographa californica) infected insect cells (BTI-TN-5B1-4) were purchased from BD Biosciences, (Bedford, MA, USA).
# (§2) Stock solutions of the test compounds/extracts were prepared in DMSO and diluted further in 0.1 M potassium phosphate buffer (pH 7.4) to obtain the desired concentrations. MAO-A and MAO-B activities were determined by fluorometric kynuramine deamination assay set up in 384-well solid white flat-bottom plates. MAO-A and MAO-B inhibition activities (IC50 values) were determined using fixed concentration of the substrate kynuramine and varying concentrations of the test compounds or extracts. The enzyme reactions were carried out in 0.1 M potassium phosphate buffer (pH-7.4). […] The reaction mixtures with buffer/substrate/inhibitor were preincubated for 10 minutes at 37°C, followed by addition of MAO-A and MAO-B to initiate the reaction. The solid white microplates were incubated for 20 minutes at 37°C and the enzymatic reaction was stopped by addition of 28 µL of 2 N NaOH to each well. The deaminated product of kynuramine, which spontaneously cyclizes to 4-hydroxyquinoline, was measured fluorometrically at 320 nm excitation and 380 nm emission wavelengths with a plate reader (SpectraMax M5, Molecular Devices, Sunnyvale, CA, USA). The IC50 values were computed by XL-Fit® from the dose-response inhibition curves.
# recombinant human MAO-A [2] = target: T2, recombinant human MAO-A (Homo sapiens, UniProt P21397); assay: Fluorometric kynuramine deamination assay, MAO-A inhibition (IC50)
# T2 construct: purchased BD Biosciences (Bedford, MA, USA); host or cells: baculovirus (Autographa californica) infected insect cells (BTI-TN-5B1-4)
# T2 sequence (P21397 1-527): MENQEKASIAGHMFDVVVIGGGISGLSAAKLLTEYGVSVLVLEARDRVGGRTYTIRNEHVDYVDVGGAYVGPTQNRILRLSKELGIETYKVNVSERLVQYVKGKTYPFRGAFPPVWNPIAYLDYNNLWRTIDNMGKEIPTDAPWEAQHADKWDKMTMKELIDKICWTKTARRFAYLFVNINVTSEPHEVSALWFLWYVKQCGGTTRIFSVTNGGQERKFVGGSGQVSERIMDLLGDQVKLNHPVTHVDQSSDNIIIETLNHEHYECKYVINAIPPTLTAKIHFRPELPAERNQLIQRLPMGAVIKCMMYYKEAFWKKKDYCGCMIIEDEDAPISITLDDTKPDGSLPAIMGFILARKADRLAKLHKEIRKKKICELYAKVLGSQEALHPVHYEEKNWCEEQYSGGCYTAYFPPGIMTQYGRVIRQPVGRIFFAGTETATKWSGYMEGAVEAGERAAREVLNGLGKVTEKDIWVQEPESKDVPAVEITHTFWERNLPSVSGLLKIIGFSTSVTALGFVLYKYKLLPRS
# Protocol: as §1, §2
# recombinant human MAO-A [3] = target: T2, recombinant human MAO-A; assay: Time-dependent enzyme inhibition assay, MAO-A; conditions: 7.50 μM, preincubation 0-15 min
# Protocol: (§3) MAO-A and MAO-B enzymes were preincubated for different time periods (0–15 min) with the inhibitor. […] Controls without inhibitors were also run simultaneously. The enzyme activities were determined as described above.
# (§4) The control enzymes without inhibitor were also run concurrently. […] The binding characteristics of desmethoxyyangonin 6 with MAO-A and MAO-B were examined by equilibrium dialysis to measure dissociation of the enzyme-inhibitor complex (Figure 6). MAO-A and MAO-B were incubated with high concentration of desmethoxyyangonin 6 for 20 minutes at 37°C to allow binding of inhibitor with the enzyme and formation of enzyme-inhibitor complex. The mixtures of enzyme-inhibitor complex were dialyzed overnight at 4°C against 25 mM KHPO4 (pH-7.4) buffer. The enzyme activities were examined before and after dialysis. Through overnight dialysis, the recombinant human MAO-A enzyme lost about 10–15% of activity. Incubation of MAO-A with 20.0 and 100 μM concentrations of desmethoxyyangonin 6 inhibited more than 65% of the enzyme activity (Figure 6). After the dialysis, more than 90% catalytic activity of MAO-A was recovered from enzyme-desmethoxyyangonin 6 incubation mixtures. Similarly, MAO-B lost about 10–15% of the enzyme activity during overnight dialysis.
# recombinant human MAO-B [4] = target: T1, recombinant human MAO-B; assay: Equilibrium dialysis assay of enzyme-inhibitor complex, MAO-B
# Protocol: (§5) Binding and inhibition of MAO-A and MAO-B with desmethoxyyangonin 6 were further examined by incubating the enzyme with high concentrations of the inhibitor followed by extensive dialysis of the enzyme-inhibitor complex and recovery of enzyme activities. MAO-A (0.05 mg/mL protein) was incubated with desmethoxyyangonin 6 (20 μM and 100.0 μM) and MAO-B (0.05 mg/mL protein) was incubated with desmethoxyyangonin 6 (1.50 μM and 20.0 μM) in an enzyme incubation mixture of 1 mL containing 100 mM potassium phosphate buffer (pH 7.4). Formation of enzyme-inhibitor complex was allowed by incubation of the reaction mixtures for 20 min at 37°C. The enzyme-inhibitor mixtures after incubation were chilled, transferred to the dialysis bags, and dialyzed against 25 mM potassium phosphate buffer (pH 7.4) for 14–16 hours at 4°C (changing the dialysis buffer three times). The enzyme catalytic activities were measured before and after dialysis.
# as §4
# recombinant human MAO-B [5] = target: T1, recombinant human MAO-B; assay: Enzyme kinetics and mechanism of inhibition of MAO-B; conditions: for Type of Inhibition, Monoamine oxidase-B: Lineweaver-Burk / dialysis; for Selectivity / higher affinity for MAO-B than MAO-A (by Ki): from Ki values
# Protocol: (§6) Results are presented as double reciprocal Lineweaver-Burk plots. The kinetic data, namely, KM, Vmax, and Ki values, were calculated by SigmaPlot 12.3 with enzyme-kinetics module using Michaelis-Menten equation. The results were also analyzed for the type of inhibition.
# (§7) To comprehend the type of inhibition, we examined 6 against both MAO-A and MAO-B at varying concentrations of kynuramine, a nonselective substrate. Desmethoxyyangonin 6 was tested at two concentrations: one above and the other below the IC50 value. For each experiment, three sets of assays were done at variable concentrations of the substrate: two concentrations of the inhibitor/compound and one control without inhibitors. The results are presented as double reciprocal Lineweaver-Burk plots and the kinetic data, namely, KM, Vmax, and Ki values, were computed by SigmaPlot 12.3 with enzyme-kinetics module using Michaelis-Menten equation (Table 2).
# recombinant human MAO-A [6] = target: T2, recombinant human MAO-A; assay: Equilibrium dialysis assay of enzyme-inhibitor complex, MAO-A
# Protocol: as §5, §4
# recombinant human MAO-A [7] = target: T2, recombinant human MAO-A; assay: Enzyme kinetics and mechanism of inhibition of MAO-A; conditions: Lineweaver-Burk / dialysis
# Protocol: as §6, §7
# recombinant human MAO-B [8] = target: T1, recombinant human MAO-B; assay: Time-dependent enzyme inhibition assay, MAO-B; conditions: 0.40 μM, preincubation 0-15 min
# Protocol: as §3, §4
# [9] = kynuramine 80 μM, mean ± SD of triplicate, read-out: Monoamine oxidase-A IC50
# [10] = equilibrium dialysis dissociation
smiles,measurement,setting,value
"COc1cc(O)c(C(=O)/C=C/c2ccccc2)c(O)c1 [Pinostrobin chalcone, 4, 2′,6′-dihydroxy-4′-methoxychalcone]",IC50,recombinant human MAO-B [1],10 ± 3.24 µM
same,IC50,recombinant human MAO-A [2]; [9],6.33 ± 0.206 µM
"COc1cc(/C=C/c2ccccc2)oc(=O)c1 [Desmethoxyyangonin, 6, desmethoxyyangonin]",Time dependence of MAO-A inhibition,recombinant human MAO-A [3],not time-dependent
same,Preferential inhibition of MAO-B than MAO-A (by IC50),recombinant human MAO-B [1]; from IC50 values,15 fold
same,IC50,recombinant human MAO-B [1],0.123 µM
same,Inhibition of MAO-B enzyme activity before dialysis,"recombinant human MAO-B [4]; 1.50 and 20.0 μM, 20 min at 37°C",more than 90%
same,Recovery of MAO-B enzyme activity after dialysis,"recombinant human MAO-B [4]; 1.50 and 20.0 μM, overnight dialysis at 4°C",fully recovered
same,Reversibility of MAO-B inhibition,recombinant human MAO-B [4]; [10],reversible binding
same,"Type of Inhibition, Monoamine oxidase-B",recombinant human MAO-B [5],Competitive/reversible
same,"Type of Inhibition, Monoamine oxidase-B",recombinant human MAO-B [5]; listed as 6,competitive
same,Selectivity / higher affinity for MAO-B than MAO-A (by Ki),recombinant human MAO-B [5]; listed as Compound 6,about 30 fold
same,Selectivity / higher affinity for MAO-B than MAO-A (by Ki),recombinant human MAO-B [5]; listed as desmethoxyyangonin 6,29 fold
same,MAO inhibition in words,recombinant human MAO-A [2]; MAO-A and MAO-B inhibition assays,potent MAO inhibition
same,IC50,recombinant human MAO-A [2]; [9],1.85 ± 0.086 µM
same,Inhibition of MAO-A enzyme activity before dialysis,"recombinant human MAO-A [6]; 20.0 and 100 μM, 20 min at 37°C",more than 65%
same,Catalytic activity of MAO-A recovered after dialysis,"recombinant human MAO-A [6]; 20.0 and 100 μM, overnight dialysis at 4°C",more than 90%
same,Reversibility of MAO-A inhibition,recombinant human MAO-A [6]; [10],reversible binding
same,"Type of Inhibition, Monoamine oxidase-A",recombinant human MAO-A [7],Mixed/reversible
same,"Type of Inhibition, Monoamine oxidase-A",recombinant human MAO-A [7]; listed as desmethoxyyangonin 6,mixed inhibitor
same,Time dependence of MAO-B inhibition,recombinant human MAO-B [8],not time-dependent
"COc1cc(O)c2c(c1)O[C@H](c1ccc(O)cc1)CC2=O [Sakuranetin, 3, naringenin 7-methyl ether]",IC50,recombinant human MAO-B [1],36.5 ± 6.63 µM
same,Index MAO-A/B,recombinant human MAO-B [1],1.246
same,IC50,recombinant human MAO-A [2],45.5 ± 5.71 µM
"COc1cc(O)c2c(c1)O[C@H](c1ccccc1)CC2=O [Pinostrobin, 1, pinostrobin]",IC50,recombinant human MAO-B [1],45.5 ± 4.31 µM
same,Index MAO-A/B,recombinant human MAO-B [1],0.524
same,IC50,recombinant human MAO-A [2]; [9],23.9 ± 1.35 µM
"O[C@H](CCc1ccccc1)C[C@@H](O)CCc1ccccc1 [Yashabushidiol A, 5, 3,5-heptanediol-1,7-diphenyl]",IC50,recombinant human MAO-B [1],35.38 ± 0.121 µM
same,IC50,recombinant human MAO-A [2]; [9],> 100 µM
"COc1ccc([C@@H]2CC(=O)c3c(O)cc(OC)cc3O2)cc1 [4′-Methyl ether sakuranetin, 2, naringenin 7,4′-dimethyl ether]",IC50,recombinant human MAO-B [1],> 100 µM
same,IC50,recombinant human MAO-A [2]; [9],31.4 ± 4.58 µM
